The structures appear in SMILES notation. Where two headings read alike, the source gives them in different places. Bounds are passed on as bounds.

One experiment has as its target DGKα (Homo sapiens (Human), UniProt P23743). Kind of experiment: biochemical. It counts as biochemical.
In experiment [1] the test system is Human venous whole blood (IFN-γ). Nature of the experiment: Human whole blood IFN-γ assay. The format is cell-based. How it is done: Assay 10: Human Whole Blood IFN-γ Assay
Human venous whole blood (22.5 μL per well), obtained from healthy donors, was pre-treated with compounds for one hour at 37° C. in a humidified 95% air/5% CO2 incubator. The blood was stimulated with 2.5 μL anti-human CD3 and anti-CD28 mAb at a final concentration of 1 μg/mL each for 24 hours at 37° C. IFN-γ in the supernatants was measured using AlphLISA kit (Cat #AL217).

The target in another experiment is human DGKζ (Homo sapiens (Human), UniProt Q13574). Kind of experiment: biochemical. It counts as biochemical. As to conditions: liposome (LIPGLO) assay.
The mark [2] stands for this setting: liposome (LIPGLO) assay, read-out: DGKα LIPGLO IC50.
Setting [3] is: human whole blood, anti-CD3 plus anti-CD28, 24 hours, read-out: INFg Whole Blood Normalized Agonist EC50.
The mark [4] stands for this setting: Homo sapiens, 24 h, human whole blood, anti-CD3 plus anti-CD28, 24 hours, read-out: INFg Whole Blood Normalized Agonist EC50.
Setting [5] is: Table A, liposome (LIPGLO) assay, read-out: DGKα.

Chain of human DGKζ (Q13574 whole entry, looked up): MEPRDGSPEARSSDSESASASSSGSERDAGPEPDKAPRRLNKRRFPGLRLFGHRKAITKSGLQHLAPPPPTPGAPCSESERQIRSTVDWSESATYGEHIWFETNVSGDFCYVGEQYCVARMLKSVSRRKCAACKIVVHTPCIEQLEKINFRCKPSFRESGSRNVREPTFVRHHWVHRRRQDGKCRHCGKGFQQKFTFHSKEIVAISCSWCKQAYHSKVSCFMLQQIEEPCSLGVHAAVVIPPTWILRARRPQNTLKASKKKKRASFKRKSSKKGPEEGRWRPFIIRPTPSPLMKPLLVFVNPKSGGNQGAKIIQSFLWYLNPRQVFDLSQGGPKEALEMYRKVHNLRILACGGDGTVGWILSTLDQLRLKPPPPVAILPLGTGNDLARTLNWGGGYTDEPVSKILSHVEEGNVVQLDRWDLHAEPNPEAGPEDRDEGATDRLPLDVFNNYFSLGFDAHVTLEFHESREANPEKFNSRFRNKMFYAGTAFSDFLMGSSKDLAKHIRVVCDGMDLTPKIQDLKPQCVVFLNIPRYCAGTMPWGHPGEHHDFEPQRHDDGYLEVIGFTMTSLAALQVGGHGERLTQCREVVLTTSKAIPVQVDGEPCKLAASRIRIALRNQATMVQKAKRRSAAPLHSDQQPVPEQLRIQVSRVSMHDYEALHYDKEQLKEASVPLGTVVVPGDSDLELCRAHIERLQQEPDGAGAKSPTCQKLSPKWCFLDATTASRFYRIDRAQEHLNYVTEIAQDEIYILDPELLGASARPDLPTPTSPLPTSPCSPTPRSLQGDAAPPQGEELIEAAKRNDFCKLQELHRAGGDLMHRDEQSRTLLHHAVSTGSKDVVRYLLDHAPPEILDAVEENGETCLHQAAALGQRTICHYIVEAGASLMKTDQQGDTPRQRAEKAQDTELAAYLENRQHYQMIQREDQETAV
Chain of DGKα (P23743 whole entry, looked up): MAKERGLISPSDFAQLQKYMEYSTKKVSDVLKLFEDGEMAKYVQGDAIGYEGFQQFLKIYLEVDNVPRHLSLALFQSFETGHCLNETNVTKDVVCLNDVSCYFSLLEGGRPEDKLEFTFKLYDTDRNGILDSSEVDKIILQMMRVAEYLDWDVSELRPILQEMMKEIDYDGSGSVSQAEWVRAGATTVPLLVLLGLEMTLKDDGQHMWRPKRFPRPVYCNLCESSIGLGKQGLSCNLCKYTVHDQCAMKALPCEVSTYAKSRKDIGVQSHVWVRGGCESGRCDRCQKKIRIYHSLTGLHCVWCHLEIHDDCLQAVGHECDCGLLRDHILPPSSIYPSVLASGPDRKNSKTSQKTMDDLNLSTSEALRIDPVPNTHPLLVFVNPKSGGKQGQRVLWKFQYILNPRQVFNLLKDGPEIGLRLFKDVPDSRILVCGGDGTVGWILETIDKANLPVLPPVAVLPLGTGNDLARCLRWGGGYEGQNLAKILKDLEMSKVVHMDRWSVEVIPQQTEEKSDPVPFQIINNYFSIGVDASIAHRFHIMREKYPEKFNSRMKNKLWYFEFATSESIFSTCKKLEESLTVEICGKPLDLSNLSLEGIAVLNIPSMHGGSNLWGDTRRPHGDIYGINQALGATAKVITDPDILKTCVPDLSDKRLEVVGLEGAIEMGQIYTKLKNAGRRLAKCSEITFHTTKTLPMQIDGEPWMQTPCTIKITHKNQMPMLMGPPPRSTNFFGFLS

Regarding `CC(C)c1ccc(O[C@@H]2CCN(c3cc(=O)n(C)c4ccc(C#N)nc34)C[C@H]2C)cc1` (single isomer, unassigned) [Example 95], the values for the IC50 at DGKα (setting [2]) and on human DGKζ (read-out: DGKζ LIPGLO IC50) were 0.4 µM and 5 µM, respectively. Also, the EC50 in experiment [1] (setting [3]) was 1 µM.
As for `Cc1ccc(O[C@@H]2CCN(c3cc(=O)n(C)c4ccc(C#N)nc34)C[C@H]2C)cc1` [Example 119, 5-methyl-8-((3R,4R)-3-methyl-4-(p-tolyloxy)piperidin-1-yl)-6-oxo-5,6-dihydro-1,5-naphthyridine-2-carbonitrile], the IC50 on DGKα (setting [2]) is 0.24 µM; on human DGKζ (read-out: DGKζ LIPGLO IC50), 20 µM. Moreover, the EC50 in experiment [1] (setting [4]) came to 6.6 µM.
Regarding `CCC(C)(C)c1ccc(OC2CCN(c3cc(=O)n(C)c4ccc(C#N)nc34)CC2)cc1` [Example 54, 5-methyl-6-oxo-8-(4-(4-(tert-pentyl)phenoxy)piperidin-1-yl)-5,6-dihydro-1,5-naphthyridine-2-carbonitrile], the IC50 is 0.54 µM at DGKα (setting [2]) and 2.1 µM on human DGKζ (read-out: DGKζ LIPGLO IC50). For the same compound, the EC50 in experiment [1] (setting [4]) stood at 2.3 µM.
The like results for `Cn1c(=O)cc(N2CCC(Oc3ccc(C4CCCC4)cc3)CC2)c2nc(C#N)ccc21` [Example 58, 8-(4-(4-cyclopentylphenoxy)piperidin-1-yl)-5-methyl-6-oxo-5,6-dihydro-1,5-naphthyridine-2-carbonitrile] were, in that order, 0.34 µM, 2.9 µM and 5.9 µM.
For the compound `CC[C@@H]1CN(c2cc(=O)n(C)c3ccc(C#N)nc23)CC[C@H]1Oc1cccc(C(F)(F)F)c1` (single isomer, unassigned) [Example 142], the results for the IC50 on DGKα (setting [2]) and at human DGKζ (read-out: DGKζ LIPGLO IC50) were 4.7 µM and 1.1 µM, respectively. Further, the EC50 in experiment [1] (setting [3]) worked out at 3 µM.
In the case of `Cn1c(=O)cc(N2CCC(Oc3ccc(C(C)(C)C)nn3)CC2)c2nc(C#N)ccc21` [Example 68, 8-(4-((6-(tert-butyl)pyridazin-3-yl)oxy)piperidin-1-yl)-5-methyl-6-oxo-5,6-dihydro-1,5-naphthyridine-2-carbonitrile], the IC50 on DGKα (setting [2]) and at human DGKζ (read-out: DGKζ LIPGLO IC50) was 1.7 µM throughout. Besides, in experiment [1] (setting [4]), the EC50 was 9.6 µM.
Regarding `Cn1c(=O)cc(N2CCC(Oc3nncc4ccccc34)CC2)c2nc(C#N)ccc21` [Example 75, 5-methyl-6-oxo-8-(4-(phthalazin-1-yloxy)piperidin-1-yl)-5,6-dihydro-1,5-naphthyridine-2-carbonitrile], the IC50 at DGKα (setting [2]) turned out to be 27 µM; on human DGKζ (read-out: DGKζ LIPGLO IC50), 18 µM. Besides, the EC50 in experiment [1] (setting [4]) was found to be 20 µM.
For `CC(C)c1ccc(O[C@H]2CCN(c3cc(=O)n(C)c4ccc(C#N)nc34)C[C@H]2C)cc1` (single isomer, unassigned) [Example 183], the IC50 on DGKα (setting [5]) was 0.71 µM; at human DGKζ (Table A, read-out: DGKζ), 0.94 µM. In addition, the EC50 in experiment [1] (Homo sapiens, human whole blood IFN-γ, read-out: INFg Whole Blood) worked out at 2.6 µM.
On to `C[C@@H]1CN(c2cc(=O)n(C)c3ccc(C#N)nc23)CC[C@H]1Oc1cccc(C2CC2)c1` (single isomer, unassigned) [Example 93], for which the IC50 on DGKα (setting [2]) amounted to 0.3 µM; at human DGKζ (read-out: DGKζ LIPGLO IC50), 18 µM. For the same compound, in experiment [1] (setting [3]), the EC50 came to 5.9 µM.
Consider `C[C@@H]1CN(c2cc(=O)n(C)c3ccc(C#N)nc23)CC[C@H]1Oc1ccc(F)cc1C(F)(F)F` [Example 116, 8-((3R,4R)-4-(4-fluoro-2-(trifluoromethyl)phenoxy)-3-methylpiperidin-1-yl)-5-methyl-6-oxo-5,6-dihydro-1,5-naphthyridine-2-carbonitrile], for which the IC50 turned out to be 0.45 µM at DGKα (setting [2]) and 13 µM at human DGKζ (read-out: DGKζ LIPGLO IC50). Besides, in experiment [1] (setting [4]), the EC50 came out at 4.7 µM.
As to `CC(C)c1ccc(O[C@H]2CCN(c3cc(=O)n(C)c4ccc(C#N)nc34)C[C@H]2C)cc1` (single isomer, unassigned) [Example 184], the IC50 on DGKα (setting [5]) is 1.4 µM; on human DGKζ (Table A, read-out: DGKζ), 6 µM. Further, the EC50 in experiment [1] (human whole blood IFN-γ, read-out: INFg Whole Blood) came to 4 µM.
As to `Cc1cccc(O[C@@H]2CCN(c3cc(=O)n(C)c4ccc(C#N)nc34)C[C@H]2C)c1` (single isomer, unassigned) [Example 109], the IC50 stood at 0.12 µM on DGKα (setting [2]) and 29 µM at human DGKζ (read-out: DGKζ LIPGLO IC50). Moreover, the EC50 in experiment [1] (setting [3]) was found to be 4.2 µM.
On to `Cc1ccc(O[C@@H]2CCN(c3cc(=O)n(C)c4ccc(C#N)nc34)C[C@H]2C)cc1` (single isomer, unassigned) [Example 120], for which the results for the IC50 at DGKα (setting [2]) and on human DGKζ (read-out: DGKζ LIPGLO IC50) were 0.35 µM and 73 µM, respectively. In addition, the EC50 in experiment [1] (setting [4]) amounted to 4.7 µM.
On the same counts, the results for `Cn1c(=O)cc(N2CCC(Oc3ncnc4ccccc34)CC2)c2nc(C#N)ccc21` [Example 71, 5-methyl-6-oxo-8-(4-(quinazolin-4-yloxy)piperidin-1-yl)-5,6-dihydro-1,5-naphthyridine-2-carbonitrile] are 2.3 µM, 3 µM and 20 µM.
Regarding `C[C@@H]1CN(c2cc(=O)n(C)c3ccc(C#N)nc23)CC[C@H]1Oc1ccc(C2CCCC2)cc1` (single isomer, unassigned) [Example 102], the IC50 is 0.068 µM at DGKα (setting [2]) and 83 µM at human DGKζ (read-out: DGKζ LIPGLO IC50). Also, the EC50 in experiment [1] (setting [3]) came out at 3.3 µM.
On to `Cc1cccc(O[C@@H]2CCN(c3c(C#N)c(=O)n(C)c4ccc(C#N)nc34)C[C@H]2C)c1` [Example 136, 5-methyl-8-((3R,4R)-3-methyl-4-(m-tolyloxy)piperidin-1-yl)-6-oxo-5,6-dihydro-1,5-naphthyridine-2,7-dicarbonitrile], for which the figures for the IC50 at DGKα (DGKα LIPGLO IC50) and at human DGKζ (read-out: DGKζ LIPGLO IC50) were 0.81 µM and no less than 250 µM, respectively. In addition, the EC50 in experiment [1] (setting [4]) was found to be 20 µM.
Turning to `Cn1c(=O)cc(N2CCC(Oc3ccc4c(c3)CCCC4)CC2)c2nc(C#N)ccc21` [Example 61, 5-methyl-6-oxo-8-(4-((5,6,7,8-tetrahydronaphthalen-2-yl)oxy)piperidin-1-yl)-5,6-dihydro-1,5-naphthyridine-2-carbonitrile], the IC50 is 0.73 µM on DGKα (setting [2]) and 4.7 µM at human DGKζ (read-out: DGKζ LIPGLO IC50). Besides, the EC50 in experiment [1] (setting [4]) is 8.5 µM.
For the compound `Cc1ccc(O[C@@H]2CCN(c3cc(=O)n(C)c4ccc(C#N)nc34)C[C@H]2C)cc1` (single isomer, unassigned) [Example 121], the IC50 on DGKα (setting [2]) worked out at 1.8 µM; at human DGKζ (read-out: DGKζ LIPGLO IC50), 9.9 µM. Besides, the EC50 in experiment [1] (setting [3]) was found to be 6.7 µM.
In the case of `CC(C)c1ccc(O[C@H]2CCN(c3cc(=O)n(C)c4ccc(C#N)nc34)C[C@H]2C)cc1` [Example 176, 8-((3R,4S)-4-(4-isopropylphenoxy)-3-methylpiperidin-1-yl)-5-methyl-6-oxo-5,6-dihydro-1,5-naphthyridine-2-carbonitrile], the IC50 at DGKα (setting [2]) came out at 0.041 µM; on human DGKζ (read-out: DGKζ LIPGLO IC50), 1.3 µM. The EC50 in experiment [1] (setting [4]) came to 2.3 µM.
As to `CC[C@@H]1CN(c2cc(=O)n(C)c3ccc(C#N)nc23)CC[C@@H]1Oc1cccc(C(C)(C)C)c1` [Example 165, 8-((3R,4S)-4-(3-(tert-butyl)phenoxy)-3-ethylpiperidin-1-yl)-5-methyl-6-oxo-5,6-dihydro-1,5-naphthyridine-2-carbonitrile], the IC50 on DGKα (setting [2]) is 0.096 µM; at human DGKζ (read-out: DGKζ LIPGLO IC50), 1.2 µM. The EC50 in experiment [1] (read-out: INFg Whole Blood Normalized Agonist EC50, human whole blood, anti-CD3 plus anti-CD28, 24 hours) worked out at 0.84 µM.
On to `CCc1cnc(O[C@H]2CCN(c3cc(=O)n(C)c4ccc(C#N)nc34)C[C@H]2C)nc1` [Example 221, 8-((3R,4S)-4-((5-ethylpyrimidin-2-yl)oxy)-3-methylpiperidin-1-yl)-5-methyl-6-oxo-5,6-dihydro-1,5-naphthyridine-2-carbonitrile], for which the IC50 on DGKα (setting [5]) amounted to 0.35 µM; at human DGKζ (Table A, read-out: DGKζ), 1.8 µM.
On to `CCC(C)(C)c1ccc(O[C@@H]2CCN(c3c(C#N)c(=O)n(C)c4ccc(C#N)nc34)C[C@H]2C)cc1` (single isomer, unassigned) [Example 230, 5-methyl-8-(trans-3-methyl-4-(4-(tert-pentyl)phenoxy)piperidin-1-yl)-6-oxo-5,6-dihydro-1,5-naphthyridine-2,7-dicarbonitrile (rel)], for which the IC50 was 3.3 µM on DGKα (setting [5]) and no less than 250 µM on human DGKζ (Table A, read-out: DGKζ).
On the same counts, the results for `CCC(C)(C)c1ccc(O[C@@H]2CCN(c3c(C#N)c(=O)n(C)c4ccc(C#N)nc34)C[C@H]2C)cc1` (racemic) [Example 229, (+/−) 5-methyl-8-(trans-3-methyl-4-(4-(tert-pentyl)phenoxy)piperidin-1-yl)-6-oxo-5,6-dihydro-1,5-naphthyridine-2,7-dicarbonitrile] are 0.28 µM and no less than 250 µM.
Turning to `Cn1c(=O)cc(N2CCC(Oc3ccc(C(F)(F)F)cn3)CC2)c2nc(C#N)ccc21` [Example 77, 5-methyl-6-oxo-8-(4-((5-(trifluoromethyl)pyridin-2-yl)oxy)piperidin-1-yl)-5,6-dihydro-1,5-naphthyridine-2-carbonitrile], the IC50 at DGKα (setting [2]) and at human DGKζ (read-out: DGKζ LIPGLO IC50) was 3 µM throughout.
Take `C[C@@H]1CN(c2cc(=O)n(C)c3ccc(C#N)nc23)CC[C@@H]1Oc1cccc(C2CC2)c1` [Example 181, 8-((3R,4S)-4-(3-cyclopropylphenoxy)-3-methylpiperidin-1-yl)-5-methyl-6-oxo-5,6-dihydro-1,5-naphthyridine-2-carbonitrile]: the results for the IC50 on DGKα (setting [2]) and on human DGKζ (read-out: DGKζ LIPGLO IC50) were 0.061 µM and 1.4 µM, respectively.
On the same counts, the results for `C[C@@H]1CN(c2cc(=O)n(C)c3ccc(C#N)nc23)CC[C@H]1Oc1cccc2c1OCCCO2` [Example 132, 8-((3R,4R)-4-((3,4-dihydro-2H-benzo[b][1,4]dioxepin-6-yl)oxy)-3-methylpiperidin-1-yl)-5-methyl-6-oxo-5,6-dihydro-1,5-naphthyridine-2-carbonitrile] are 0.011 µM and 4.3 µM.

Values taken from US11964973B2 (priority 2019, dated 2024).
